Results on four compounds are retold here after patent US20230265151A1, “GIP/GLP1 CO-AGONIST COMPOUNDS” (priority 2020, published 2023).

The target of one assay is hGLP-1R (Homo sapiens, UniProt P43220). Description: Functional cAMP formation (HTRF) in HEK-293 clonal cells expressing hGLP-1R, 0.1% bovine casein, without or with 1.0% human serum albumin. In kind it is cell-based. To be noted: for Emax: read-out: hGLP-1R Emax, % ± SEM; for EC50: geometric mean, read-out: hGLP-1R EC50, nM (SEM, n). Also noted: expressed in transfected cells. The procedure, abridged: (§1)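 Cells were stimulated with peptide for 30 min at 37° C, then intracellular cAMP was measured by competitive HTRF (665/620 nm ratio) and converted to nM using a cAMP standard curve. Relative EC50 and Emax came from four-parameter logistic fits of percent maximal response against peptide concentration.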
Sequence of hGLP-1R (P43220 24-463): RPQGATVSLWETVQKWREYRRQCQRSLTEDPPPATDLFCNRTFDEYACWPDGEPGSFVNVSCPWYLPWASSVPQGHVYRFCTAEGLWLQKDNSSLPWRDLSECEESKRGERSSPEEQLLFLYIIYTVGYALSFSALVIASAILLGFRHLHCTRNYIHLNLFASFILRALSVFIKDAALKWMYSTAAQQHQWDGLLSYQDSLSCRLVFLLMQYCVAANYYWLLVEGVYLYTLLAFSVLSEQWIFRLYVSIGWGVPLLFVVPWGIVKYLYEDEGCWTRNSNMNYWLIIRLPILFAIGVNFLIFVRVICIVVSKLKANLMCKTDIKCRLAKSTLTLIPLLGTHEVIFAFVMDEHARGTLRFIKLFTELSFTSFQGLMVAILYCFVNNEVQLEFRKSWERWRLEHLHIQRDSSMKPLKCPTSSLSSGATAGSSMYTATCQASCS
For orientation: Cyclic AMP is a second messenger, typically raised through Gs and lowered through Gi signalling.

The target in a further assay is T1, hGCGR (Homo sapiens, UniProt P47871).
T1 construct: expressed in transfected cells
T1 sequence (P47871 26-477): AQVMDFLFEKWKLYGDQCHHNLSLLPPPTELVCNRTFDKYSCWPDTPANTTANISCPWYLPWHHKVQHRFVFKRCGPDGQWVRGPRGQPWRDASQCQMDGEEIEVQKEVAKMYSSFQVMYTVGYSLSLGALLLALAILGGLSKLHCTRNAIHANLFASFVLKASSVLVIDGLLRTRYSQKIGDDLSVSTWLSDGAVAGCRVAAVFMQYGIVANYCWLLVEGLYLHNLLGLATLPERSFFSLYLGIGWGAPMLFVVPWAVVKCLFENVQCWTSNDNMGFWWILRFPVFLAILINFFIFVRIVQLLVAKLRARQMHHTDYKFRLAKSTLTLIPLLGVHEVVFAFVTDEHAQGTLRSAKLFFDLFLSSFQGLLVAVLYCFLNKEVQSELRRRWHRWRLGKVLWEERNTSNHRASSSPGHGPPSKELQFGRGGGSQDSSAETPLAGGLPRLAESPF
Description: Functional cAMP formation (HTRF) in HEK-293 clonal cells expressing hGCGR, 0.1% bovine casein, without or with 1.0% human serum albumin. Particulars: geometric mean, read-out: hGCGR EC50, nM (SEM, n). The class given is cell-based. The procedure, abridged:
as §1

The target in another assay is T2, hGIPR (Homo sapiens, UniProt P48546).
T2 construct: expressed in transfected cells
T2 sequence (P48546 22-466): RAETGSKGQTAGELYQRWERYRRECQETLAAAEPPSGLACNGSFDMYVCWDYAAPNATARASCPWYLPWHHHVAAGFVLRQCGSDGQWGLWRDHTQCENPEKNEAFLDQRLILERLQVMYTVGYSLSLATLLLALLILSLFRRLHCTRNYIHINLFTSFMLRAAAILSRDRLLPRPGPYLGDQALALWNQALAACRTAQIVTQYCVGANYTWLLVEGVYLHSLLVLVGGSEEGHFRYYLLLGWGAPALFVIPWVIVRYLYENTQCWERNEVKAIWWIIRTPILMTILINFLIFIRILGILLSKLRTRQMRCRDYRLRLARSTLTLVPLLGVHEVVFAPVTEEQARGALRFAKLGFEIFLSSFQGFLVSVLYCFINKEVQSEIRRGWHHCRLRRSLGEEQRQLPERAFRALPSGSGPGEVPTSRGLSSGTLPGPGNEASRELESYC
Description: Functional cAMP formation (HTRF) in HEK-293 clonal cells expressing hGIPR, 0.1% bovine casein, without or with 1.0% human serum albumin. To be noted: for Emax: read-out: hGIPR Emax, % ± SEM; for EC50: geometric mean, read-out: hGIPR EC50, nM (SEM, n). The class given is cell-based. The procedure, abridged:
as §1

The target in assay [1] is T3, human Gcg receptor (hGcgR) (Homo sapiens, UniProt P47871).
T3 construct: expressed in transfected cells; crude membranes
T3 sequence (P47871 26-477): as the sequence (P47871 26-477) above
Description: [125I]-Glucagon binding, SPA with membranes of HEK293 cells expressing hGcgR. Particulars: human GcgR; geometric mean (SEM, n); read-out: Binding Affinity Ki, nM (SEM, n) hGCGR.

[2] abbreviates: HEK293, 0.1% bovine casein and 1.0% human serum albumin, 37° C., percent of maximal response to GLP-1(7-36)NH2.
[3] abbreviates: HEK293, percent of maximal response to GLP-1(7-36)NH2, 37° C., 0.1% bovine casein, arithmetic mean.
Where [4] appears, read: cAMP, incubated at 37° C., 0.1% bovine casein (no human serum albumin).
Setting [5] is: 0.1% bovine casein and 1.0% human serum albumin, 37° C.
Setting [6] is: HEK293, 0.1% bovine casein and 1.0% human serum albumin, 37° C., percent of maximal response to GIP(1-42)NH2.
The mark [7] stands for this setting: HEK293, percent of maximal response to GIP(1-42)NH2, 37° C., 0.1% bovine casein, arithmetic mean.

Like-named read-outs stand apart in the source and are kept apart here.

Broadly, the Emax is the greatest response seen or fitted, relative to the assay's reference. As usually defined, the EC50 is the concentration that produces a half-maximal response. Usually Ki stands for a dissociation constant, usually derived from enzyme kinetics or from competition with a known ligand. On to `CC[C@H](C)[C@H](NC(=O)[C@H](CC(C)C)NC(=O)[C@](C)(Cc1ccccc1)NC(=O)[C@@H](CCC(=O)O)NC(=O)[C@@H](NC(=O)[C@H](Cc1ccccc1)NC(=O)[C@H](CCC(=O)O)NC(=O)C(C)(C)NC(=O)[C@H](CCC(N)=O)NC(=O)[C@H](C)NC(=O)[C@H](CCCCNC(=O)COCCOCCNC(=O)COCCOCCNC(=O)CC[C@H](NC(=O)CCCCCCCCCCCCC(=O)O)C(=O)O)NC(=O)[C@H](CCCN)NC(=O)[C@H](CC(=O)O)NC(=O)[C@H](CC(C)C)NC(=O)[C@](C)(CC(C)C)NC(=O)[C@@H](NC(=O)[C@H](CO)NC(=O)[C@H](Cc1ccncc1)NC(=O)[C@H](CC(=O)O)NC(=O)[C@H](CO)NC(=O)[C@@H](NC(=O)[C@](C)(Cc1ccccc1)NC(=O)[C@@H](NC(=O)CNC(=O)[C@H](CCC(=O)O)NC(=O)C(C)(C)NC(=O)[C@@H](N)Cc1ccc(O)cc1)[C@@H](C)O)[C@@H](C)O)[C@@H](C)CC)[C@@H](C)CC)C(=O)N[C@@H](CCC(=O)O)C(=O)NCC(=O)NCC(=O)N[C@@H](CCCCNC(=O)COCCOCCNC(=O)COCCOCCNC(=O)CC[C@H](NC(=O)CCCCCCCCCCCCC(=O)O)C(=O)O)C(=O)N[C@@H](CO)C(=O)N[C@@H](CO)C(=O)NCC(=O)N[C@@H](C)C(=O)N1CCC[C@H]1C(=O)N1CCC[C@H]1C(=O)N1CCC[C@H]1C(=O)N[C@@H](CO)C(N)=O` [Example 48], for which the Emax on hGLP-1R (setting [2]) amounted to 111%; at hGLP-1R (setting [3]) it was 87.8 ± 6.25%; at hGIPR (setting [6]) it was 90.8%; on hGIPR (setting [7]) it was 91.6 ± 3.38%. The EC50 on hGLP-1R (setting [4]) is 1 nM; on hGCGR (setting [5]) it was above 9950 nM; on hGCGR (setting [4]), above 9950 nM; on hGIPR (setting [4]), 0.0182 nM. Further, the Ki in assay [1] is above 966 nM.
As for `CC[C@H](C)[C@H](NC(=O)[C@H](CC(C)C)NC(=O)[C@](C)(Cc1ccc(O)cc1)NC(=O)[C@@H](CCC(=O)O)NC(=O)[C@@H](NC(=O)[C@H](Cc1ccccc1)NC(=O)[C@H](CCC(=O)O)NC(=O)C(C)(C)NC(=O)[C@H](CCC(N)=O)NC(=O)[C@H](C)NC(=O)[C@H](CCCCNC(=O)COCCOCCNC(=O)COCCOCCNC(=O)CC[C@H](NC(=O)CCCCCCCCCCCCC(=O)O)C(=O)O)NC(=O)[C@H](CCCN)NC(=O)[C@H](CC(=O)O)NC(=O)[C@H](CC(C)C)NC(=O)[C@](C)(Cc1ccccc1)NC(=O)[C@@H](NC(=O)[C@H](CO)NC(=O)[C@H](Cc1ccncc1)NC(=O)[C@H](CC(=O)O)NC(=O)[C@H](CO)NC(=O)[C@@H](NC(=O)[C@](C)(Cc1ccccc1)NC(=O)[C@@H](NC(=O)CNC(=O)[C@H](CCC(=O)O)NC(=O)C(C)(C)NC(=O)[C@@H](N)Cc1ccc(O)cc1)[C@@H](C)O)[C@@H](C)O)[C@@H](C)CC)[C@@H](C)CC)C(=O)N[C@@H](CCC(=O)O)C(=O)NCC(=O)NCC(=O)N[C@@H](CCCCNC(=O)COCCOCCNC(=O)COCCOCCNC(=O)CC[C@H](NC(=O)CCCCCCCCCCCCC(=O)O)C(=O)O)C(=O)N[C@@H](CO)C(=O)N[C@@H](CO)C(=O)NCC(=O)N[C@@H](C)C(=O)N1CCC[C@H]1C(=O)N1CCC[C@H]1C(=O)N1CCC[C@H]1C(=O)N[C@@H](CO)C(N)=O` [Example 46], the Emax was found to be 117% on hGLP-1R (setting [2]), 79.2 ± 1.23% at hGLP-1R (setting [3]), 73.3% on hGIPR (setting [6]) and 89.5 ± 2.64% on hGIPR (setting [7]). In addition, the EC50 at hGCGR (setting [5]) and at hGCGR (setting [4]) was above 9950 nM each time. For the same compound, the Ki in assay [1] is above 966 nM.
With `CC[C@H](C)[C@H](NC(=O)[C@H](CC(C)C)NC(=O)[C@](C)(Cc1ccc(O)cc1)NC(=O)[C@@H](CCC(=O)O)NC(=O)[C@@H](NC(=O)[C@H](Cc1ccccc1)NC(=O)[C@H](CCC(=O)O)NC(=O)C(C)(C)NC(=O)[C@H](CCC(N)=O)NC(=O)[C@H](C)NC(=O)[C@H](CCCCNC(=O)COCCOCCNC(=O)COCCOCCNC(=O)[C@@H](N)CCCCNC(=O)CC[C@H](NC(=O)CCCCCCCCCCCCC(=O)O)C(=O)O)NC(=O)[C@H](CCCN)NC(=O)[C@H](CC(=O)O)NC(=O)[C@H](CC(C)C)NC(=O)[C@](C)(CC(C)C)NC(=O)[C@@H](NC(=O)[C@H](CO)NC(=O)[C@H](Cc1ccncc1)NC(=O)[C@H](CC(=O)O)NC(=O)[C@H](CO)NC(=O)[C@@H](NC(=O)[C@](C)(Cc1ccccc1F)NC(=O)[C@@H](NC(=O)CNC(=O)[C@H](CCC(=O)O)NC(=O)C(C)(C)NC(=O)[C@@H](N)Cc1ccc(O)cc1)[C@@H](C)O)[C@@H](C)O)[C@@H](C)CC)[C@@H](C)CC)C(=O)N[C@@H](CCC(=O)O)C(=O)NCC(=O)NCC(=O)N[C@@H](CCCCNC(=O)COCCOCCNC(=O)COCCOCCNC(=O)[C@@H](N)CCCCNC(=O)CC[C@H](NC(=O)CCCCCCCCCCCCC(=O)O)C(=O)O)C(=O)N[C@@H](CO)C(=O)N[C@@H](CO)C(=O)NCC(=O)N[C@@H](C)C(=O)N1CCC[C@H]1C(=O)N1CCC[C@H]1C(=O)N1CCC[C@H]1C(=O)N[C@@H](CO)C(N)=O` [Example 34], the EC50 on hGLP-1R (setting [5]) was 19.8 nM; on hGLP-1R (setting [4]) it was 1 nM; at hGCGR (setting [5]), above 9950 nM; on hGCGR (setting [4]) it was above 9950 nM; on hGIPR (setting [5]) it was 0.213 nM; at hGIPR (setting [4]) it was 0.0148 nM. Further, the Emax was 89.1 ± 2% at hGIPR (setting [6]) and 97.4 ± 2.34% at hGIPR (setting [7]). In addition, in assay [1], the Ki is above 957 nM.
As for `CC[C@H](C)[C@H](NC(=O)[C@H](CC(C)C)NC(=O)[C@](C)(Cc1ccc(O)cc1)NC(=O)[C@@H](CCC(=O)O)NC(=O)[C@@H](NC(=O)[C@H](Cc1ccccc1)NC(=O)[C@H](CCC(=O)O)NC(=O)C(C)(C)NC(=O)[C@H](CCC(N)=O)NC(=O)[C@H](C)NC(=O)[C@H](CCCCNC(=O)COCCOCCNC(=O)COCCOCCNC(=O)CC[C@H](NC(=O)CCCCCCCCCCCCC(=O)O)C(=O)O)NC(=O)[C@H](CCCN)NC(=O)[C@H](CC(=O)O)NC(=O)[C@H](CC(C)C)NC(=O)[C@](C)(CC(C)C)NC(=O)[C@@H](NC(=O)[C@H](CO)NC(=O)[C@H](Cc1ccncc1)NC(=O)[C@H](CC(=O)O)NC(=O)[C@H](CO)NC(=O)[C@@H](NC(=O)[C@](C)(Cc1ccccc1)NC(=O)[C@@H](NC(=O)CNC(=O)[C@H](CCC(=O)O)NC(=O)C(C)(C)NC(=O)[C@@H](N)Cc1ccc(O)cc1)[C@@H](C)O)[C@@H](C)O)[C@@H](C)CC)[C@@H](C)CC)C(=O)N[C@@H](CCC(=O)O)C(=O)NCC(=O)NCC(=O)N[C@@H](CCCCNC(=O)COCCOCCNC(=O)COCCOCCNC(=O)CC[C@H](NC(=O)CCCCCCCCCCCCC(=O)O)C(=O)O)C(=O)N[C@@H](CO)C(=O)N[C@@H](CO)C(=O)NCC(=O)N[C@@H](C)C(=O)N1CCC[C@H]1C(=O)N1CCC[C@H]1C(=O)N1CCC[C@H]1C(=O)N[C@@H](CO)C(N)=O` [Example 44], the EC50 on hGLP-1R (setting [5]) is 125 nM; at hGCGR (setting [5]), above 9950 nM; on hGCGR (setting [4]), above 9950 nM; at hGIPR (setting [5]), 1.68 nM. In addition, the Emax worked out at 94.5% at hGLP-1R (setting [2]), 90.9 ± 10.4% on hGLP-1R (setting [3]), 87% at hGIPR (setting [6]) and 92.2 ± 6.17% on hGIPR (setting [7]). Further, in assay [1], the Ki was above 966 nM.
